Our source for the IC50 values is US20230212180A1, “SUBSTITUTED PYRAZINE COMPOUND, PHARMACEUTICAL COMPOSITION COMPRISING SAME, AND USE THEREOF” (Sichuan Kelun-Biotech Biopharmaceutical Co., Ltd., priority 2020, published 2023).

The target of assay [1] is T1, recombinant full-length human PTPN11 (SHP2) (Homo sapiens, UniProt Q06124).
T1 construct: recombinant full-length human PTPN11 (SHP2), active (SignalChem); purchased SignalChem
T1 sequence (Q06124 1-593): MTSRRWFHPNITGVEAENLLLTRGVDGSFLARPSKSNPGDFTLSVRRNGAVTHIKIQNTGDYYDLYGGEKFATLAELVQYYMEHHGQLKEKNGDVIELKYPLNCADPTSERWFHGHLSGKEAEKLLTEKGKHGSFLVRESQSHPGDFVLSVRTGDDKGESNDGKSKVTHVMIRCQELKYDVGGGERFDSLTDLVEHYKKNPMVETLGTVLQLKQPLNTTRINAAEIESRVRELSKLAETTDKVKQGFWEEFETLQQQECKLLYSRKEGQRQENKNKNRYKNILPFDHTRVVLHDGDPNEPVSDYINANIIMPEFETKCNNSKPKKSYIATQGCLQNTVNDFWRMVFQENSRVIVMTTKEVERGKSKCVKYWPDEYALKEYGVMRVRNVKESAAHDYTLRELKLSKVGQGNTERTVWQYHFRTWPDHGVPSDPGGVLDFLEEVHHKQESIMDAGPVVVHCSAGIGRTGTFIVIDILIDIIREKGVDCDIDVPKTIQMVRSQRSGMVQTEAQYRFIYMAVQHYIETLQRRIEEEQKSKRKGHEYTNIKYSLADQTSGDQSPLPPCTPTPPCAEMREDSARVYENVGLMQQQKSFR
The experiment in a line: Inhibition of in vitro enzyme activity of SHP2 (DiFMUP fluorescence endpoint assay). It counts as biochemical. The settings on record: SHP2 0.5 nM, DiFMUP 200 μM, IRS-1 0.5 μM; 60 min incubation. As to the method: Test Example 1: Experiment on the Inhibition of In Vitro Enzyme Activity of SHP2 (Protein Phosphatase)
phosphatase: recombinant full-length human PTPN11 (SHP2), active (SignalChem);
substrate: 6,8-difluoro-4-methylumbelliferyl phosphate (DiFMUP) (Invitrogen);
activating peptide: IRS1_pY1172(dPEG8)pY1222 (IRS1) (BPS Bioscience);
terminator: bpv(phen) (bpv) (Abcam).
SHP2 concentration: 0.5 nM;
DiFMUP concentration: 200 μM;
IRS-1 concentration: 0.5 μM;
bpv concentration: 160 μM;
buffer systems: 60 mM Hepes pH 7.2; 75 mM NaCl; 75 mM KCl; 0.05% surfactant P20; 1 mM EDTA; 5 mM DTT;
incubation duration of compound and enzyme: 60 minutes;
reaction time of enzyme and substrate: 30 minutes;
parameters for microplate reader: BMG PHERAstar fluorescence microplate reader at an excitation wavelength of 340 nm and an emission wavelength of 450 nm.
Test group: A mixture of the test compound and the phosphatase SHP2 together with the activating peptide IRS-1 were incubated in the buffer system at room temperature for 60 minutes. The substrate DiFMUP was added to initiate the reaction and incubated at room temperature for 30 minutes. Thereafter, bpv was added to terminate the reaction. The reaction plate was placed in the microplate reader, and the fluorescence intensities of the wells in the plate were measured using an endpoint assay.
Negative group: The experimental method for the negative group was the same as that for the test group, except that the test compound was substituted with 0.05% aqueous solution of DMSO.
Blank group: The experimental method for the blank group was the same as that for the test group, except that the test compound was substituted with 0.05% aqueous solution of DMSO and that SHP2 was not added.
The relative inhibitory activity was calculated for the test group at each concentration based on the following equation: inhibition rate (%)=100%−(the fluorescence intensity of the test group−the fluorescence intensity of the blank group)/(the fluorescence intensity of the negative group−the fluorescence intensity of the blank group)×100%. The half maximal inhibitory concentration (IC50) of the compound was calculated by fitting the curve according to the four-parameter logistic model.

Assay [2] has as its system KYSE-520 cell (human esophageal squamous cell carcinoma cell). The experiment in a line: Inhibition of the proliferation activity of KYSE-520 cell (CellTiter-Glo). The note with it: 120 h, KYSE-520 cell proliferation, 5 days. The assay is classed as cell-based. As for the experimental part: Test Example 2: Experiment on the Inhibition of the Proliferation Activity of KYSE-520 Cell (Human Esophageal Squamous Cell Carcinoma Cell)
cell: KYSE-520 (JCRB Cell Bank);
(§1) kit: CellTiter-Glo® Luminescent Cell Viability Assay Kit (Promega).
(§2) inoculation amount of cell: 1500 cells/well;
incubation conditions for compound: 37° C., 5% CO2;
(§3) incubation duration: 5 days;
(§4) detecting temperature: room temperature;
(§5) chemiluminescence detection using the BMG PHERAstar FS reader.
(§6) Cells were cultured in a medium containing 10% fetal bovine serum under the culture conditions of 37° C. and 5% CO2. An appropriate amount of cells were plated into a 96-well plate and cultured overnight in an incubator to allow the cells to adhere to the wall. The following day, the medium was removed and a complete medium containing a pre-diluted compound was added and incubated at 37° C. for 5 days. On the fifth day, the detection reagent CellTiter-Glo® was added into each well. Chemiluminescence was adopted to detect the relative luminescence units (RLUs) of the wells.
(§7) The result of a well containing cell-free medium, treated with CellTiter-Glo®, was obtained as the blank value. Cell viability (%)=(sample RLU−blank RLU)/(vehicle RLU−blank RLU)×100%, and maximum inhibition rate (%)=100%−cell viabilitymax. conc. (%). The half maximal inhibitory concentration (IC50) of the compound was calculated by fitting the curve according to the four-parameter logistic model.

Assay [3] concerns NCI-H358 cell (human non-small cell lung cancer cell). The experiment in a line: Inhibition of the proliferation activity of NCI-H358 cell (CellTiter-Glo). It counts as cell-based. The settings on record: 120 h, 5 days. As to the method:
Test Example 4: Experiment on the Inhibition of the Proliferation Activity of NCI-H358 Cell (Human Non-Small Cell Lung Cancer Cell)
cell: NCI-H358 (Nanjing CoBioer);
as §1, §2
incubation conditions for compounds: 37° C., 5% CO2;
as §3, §4, §5, §6, §7
For orientation: In ATP-based viability assays light output follows the ATP content of the culture.

Usually IC50 stands for the midpoint of a concentration-inhibition curve.

With `CC(C)(O)C1CN(c2nccc(Sc3cnc(N4CCC5(CC4)Oc4ccc(F)cc4[C@H]5N)cn3)c2Cl)C1` [Example 41, (R)-2-(1-(4-(5-(3-amino-5-fluoro-3H-spiro[benzofuran-2,4′-piperidin]-1′-yl)pyrazin-2-ylthio)-3-chloropyridin-2-yl)azetidin-3-yl)propan-2-ol], the IC50 in assay [1] amounted to 8.4 nM.

With `CC(C)(O)C1CN(c2nccc(Sc3cnc(N4CCC5(CC4)Oc4ccc(F)cc4[C@H]5N)c(CO)n3)c2Cl)C1` [Example 20, (R)-2-(1-(4-(5-(3-amino-5-fluoro-3H-spiro[benzofuran-2,4′-piperidin]-1′-yl)-6-(hydroxymethyl)pyrazin-2-ylthio)-3-chloropyridin-2-yl)azetidin-3-yl)propan-2-ol], the IC50 in assay [1] came out at 6.9 nM.

As to `C[C@@H]1OCC2(CCN(c3ncc(Sc4ccc(N5CC(C(C)(C)O)C5)nc4Cl)nc3CO)CC2)[C@@H]1N` [Example 11, 2-(1-(5-(5-((3S,4S)-4-amino-3-methyl-2-oxa-8-azaspiro[4.5]decan-8-yl)-6-(hydroxymethyl)pyrazin-2-ylthio)-6-chloropyridin-2-yl)azetidin-3-yl)propan-2-ol], the IC50 in assay [1] came to 9.3 nM. Take `C[C@@H]1OCC2(CCN(c3ncc(Sc4ccnc(N5CCC(CO)C5)c4Cl)nc3CO)CC2)[C@@H]1N` (stereo partly drawn) [Example 8, (3-((3S,4S)-4-amino-3-methyl-2-oxa-8-azaspiro[4.5]decan-8-yl)-6-(3-chloro-2-(3-(hydroxymethyl)pyrrolidin-1-yl)pyridin-4-ylthio)pyrazin-2-yl)methanol]: the IC50 came out at 0.88 nM in assay [1] and 30 nM in assay [2]. The matching figures for `CC(C)(O)C1CN(c2nccc(Sc3cnc(N4CCC5(CC4)CCC4(CC4)[C@H]5N)c(CO)n3)c2Cl)C1` [Example 49, 2-(1-(4-(5-(4-amino-8-azadispiro[2.1.5.2]dodecan-8-yl)-6-(hydroxymethyl)pyrazin-2-ylthio)-3-chloropyridin-2-yl)azetidin-3-yl)propan-2-ol]: 2.3 nM and 270 nM. Taken in the same sequence, the figures for `C[C@@H]1OCC2(CCN(c3ncc(Sc4ccnc(N5CC(CF)C5)c4Cl)nc3CO)CC2)[C@@H]1N` [Example 16, (3-((3S,4S)-4-amino-3-methyl-2-oxa-8-azaspiro[4.5]decan-8-yl)-6-(3-chloro-2-(3-(fluoromethyl)azetidin-1-yl)pyridin-4-ylthio)pyrazin-2-yl)methanol] were 1 nM and 40 nM. For `Cc1nc(N2CCC3(CC2)Cc2ncccc2[C@H]3N)c(CO)nc1Sc1ccnc(N2CC(C(C)(C)O)C2)c1Cl` [Example 50, (S)-2-(1-(4-(5-(5-amino-5,7-dihydrospiro[cyclopenta[b]pyridine-6,4′-piperidin]-1′-yl)-6-(hydroxymethyl)-3-methylpyrazin-2-ylthio)-3-chloropyridin-2-yl)azetidin-3-yl)propan-2-ol], the IC50 in assay [1] worked out at 4.84 nM. On to `COCC1(C)CN(c2nccc(Sc3cnc(N4CCC5(CC4)CO[C@@H](C)[C@H]5N)c(CO)n3)c2Cl)C1` [Example 33, (3-((3S,4S)-4-amino-3-methyl-2-oxa-8-azaspiro[4.5]decan-8-yl)-6-(3-chloro-2-(3-(methoxymethyl)-3-methylazetidin-1-yl)pyridin-4-ylthio)pyrazin-2-yl)methanol], for which the IC50 in assay [1] was 4.1 nM; in assay [2] it was 90 nM.

Turning to `CC(C)(O)C1CN(c2nccc(Sc3cnc(N4CCC5(CC4)Cc4ncccc4[C@H]5N)cn3)c2Cl)C1` [Example 45, (S)-2-(1-(4-(5-(5-amino-5,7-dihydrospiro[cyclopenta[b]pyridine-6,4′-piperidin]-1′-yl)pyrazin-2-ylthio)-3-chloropyridin-2-yl)azetidin-3-yl)propan-2-ol], the results for the IC50 in assay [1] and in assay [2] were 4.1 nM and 210 nM, respectively. Turning to `C[C@@H]1OCC2(CCN(c3cnc(Sc4ccnc(N5CC(CS(C)(=O)=O)C5)c4Cl)c(N)n3)CC2)[C@@H]1N` [Example 38, (3S,4S)-8-(6-amino-5-(3-chloro-2-(3-(methylsulfonylmethyl)azetidin-1-yl)pyridin-4-ylthio)pyrazin-2-yl)-3-methyl-2-oxa-8-azaspiro[4.5]decan-4-amine], the IC50 in assay [1] stood at 5.3 nM.

Turning to `C[C@@H]1OCC2(CCN(c3cnc(Sc4ccnc(N5CCCC5CO)c4Cl)c(N)n3)CC2)[C@@H]1N` (stereo partly drawn) [Example 37, (1-(4-(3-amino-5-((3S,4S)-4-amino-3-methyl-2-oxa-8-azaspiro[4.5]decan-8-yl)pyrazin-2-ylthio)-3-chloropyridin-2-yl)pyrrolidin-2-yl)methanol], in assay [1], the IC50 is 2.4 nM. Turning to `Cc1nc(N2CCC3(CC2)CO[C@@H](C)[C@H]3N)c(CO)nc1Sc1ccnc(N2CC(C(C)(C)O)C2)c1Cl` [Example 32, 2-(1-(4-(5-((3S,4S)-4-amino-3-methyl-2-oxa-8-azaspiro[4.5]decan-8-yl)-6-(hydroxymethyl)-3-methylpyrazin-2-ylthio)-3-chloropyridin-2-yl)azetidin-3-yl)propan-2-ol], the IC50 in assay [1] came to 3.7 nM. Regarding `C[C@@H]1OCC2(CCN(c3ncc(Sc4ccnc(N5CCC(CC#N)C5)c4Cl)nc3CO)CC2)[C@@H]1N` (stereo partly drawn) [Example 10, 2-(1-(4-(5-((3S,4S)-4-amino-3-methyl-2-oxa-8-azaspiro[4.5]decan-8-yl)-6-(hydroxymethyl)pyrazin-2-ylthio)-3-chloropyridin-2-yl)pyrrolidin-3-yl)acetonitrile], the IC50 in assay [1] came to 1.22 nM; in assay [2] it was 40 nM. Taken in the same sequence, the figures for `CC(N)C1(C)CCN(c2ncc(Sc3ccnc(N4CCCC4CO)c3Cl)nc2CO)CC1` (stereo not drawn) [Example 3] were 3.48 nM and 1140 nM. Turning to `CC(C)(O)C1CN(c2nccc(Sc3cnc(N4CCC5(CC4)Oc4ncccc4[C@H]5N)c(CO)n3)c2Cl)C1` [Example 44, (R)-2-(1-(4-(5-(3-amino-3H-spiro[furo[2,3-b]pyridine-2,4′-piperidin]-1′-yl)-6-(hydroxymethyl)pyrazin-2-ylthio)-3-chloropyridin-2-yl)azetidin-3-yl)propan-2-ol], the IC50 was determined as 50 nM in assay [3], 2.49 nM in assay [1] and 50 nM in assay [2].
